Test results from PMC3093368 (PLoS Pathogens, 2011).
“Also recorded” adds a separate entry of the source. Ends that are not written are not given here.

What was measured:
[1] = test system: HIVLAI-infected T1-B7 cells / Q9VF/5D-specific CTLs; test: Mouse CTL recognition of HIV-infected T1-B7 cells after epoxomicin treatment (IFNγ-ELISpot); type: cell-based
Method: Mouse CTL lines were derived from splenocytes of peptide immunized HLA-B*07^mα3 transgenic mice. In brief, these mice express HLA-B*0702 heavy chain with a murine α3 domain and their H-2K^b and H-2D^b class Ia genes have been inactivated. Cytolytic activity of splenocyte cultures was first assessed in a^51Cr release assay. Peptide specific CTL lines were stimulated in vitro (5 µg/mL of peptide) and cultured in RPMI 1640 medium supplemented with 10% FCS, 0.5 µM 2-β-mercaptoethanol (Sigma), 100 IU/mL penicillin and 100 µg/mL streptomycin (Gibco-BRL). Ten days later, 2×10^3, 400 and 80 CTLs in triplicates were stimulated by 10^5 HIV-1-infected T1-B7 cells and IFNγ release was detected by ELISpot assay. Cross-reactivity of Q9VF/5D- and Q9VF/5N-specific CTLs was tested in IFNγ-ELISpot and Cr^51-release assays using T1-B7 peptide-loaded cells. Mouse CTL lines specific for the HLA-B*0702-restricted HIV-1 Nef-derived epitope F10LR (Nef 68[…]77; [22]) were used as controls. When stated, HIV-infected T1-B7 cells were treated with epoxomicin (6 h, 1 µg/ml, Calbiochem). To remove residual MHC-peptide complexes, epoxomycin-exposed cells were treated with a citrate-phosphate buffer (pH 3.3) containing 1% BSA and washed twice, prior co-culture with CTLs for an additional 8 h.

[2] = test system: immunoproteasomes (IP); test: Immunoproteasomes isolated from T2.27mp cells, in 20 mM Hepes/KOH, pH 7.8, 2 mM magnesium acetate and 2 mM dithiothreitol; conditions: up to 18 h
[3] = In vitro immunoproteasome digestion of 27mer peptides, MS/MS analysis; type: in vitro ADME; conditions: immunoproteasomes isolated from T2.27mp cells, 3 nmol 27mer, 1 µg immunoproteasome; for metabolised at 0.5 h, 30 µM: 100 µl 20 mM Hepes/KOH pH 7.8, 2 mM Mg acetate, 2 mM DTT, RP-HPLC ESI MS intensity, 30 min, read-out: substrate degraded after 30 min; for metabolised at 2 h, 30 µM: Hepes/KOH pH 7.8, MS intensity, read-out: substrate degraded after 2 h
Method: Immunoproteasomes were isolated from T2.27mp cells (that stably express all three immunosubunits) as previously described. Purified proteasomes were analyzed by SDS-PAGE. The yield was calculated at 90–95%. The 27mer peptides encompassing Q9VF/5D or Q9VF/5N were synthesized using standard Fmoc method on an Applied Biosystems 433A automated synthesizer. The peptides were purified by HPLC and analyzed by mass spectrometry. Three nmol of peptides were digested in vitro using 1 µg of proteasomes (for 0.5, 1, 2, 4, 8 and 18 h) in 100 µl of buffer containing 20 mM Hepes/KOH, pH 7.8, 2 mM magnesium acetate and 2 mM dithiothreitol. Reactions were stopped by the addition of trifluoroacetic acid to a final concentration of 0.3%. The digestions were analyzed, by mass spectrometry (RP-HPLC ESI) and the products were identified by MS/MS.

[4] = test system: immunoproteasome (IP); test: Immunoproteasomes isolated from T2.27mp cells; 20 mM Hepes/KOH, pH 7.8, 2 mM magnesium acetate, 2 mM dithiothreitol; conditions: human, up to 18 h

Row | Compound | cleaved bond [2] | metabolised at 0.5 h, 30 µM [3] [%] | metabolised at 2 h, 30 µM [3] [%] | further results
1 | CC[C@H](C)[C@H](NC(=O)[C@H]([C@@H](C)CC)N(C)C(C)=O)C(=O)N[C@H](C(=O)N[C@@H](CC(C)C)C(=O)[C@@]1(C)CO1)[C@@H](C)O [Epoxomicin, epoxomicin] | – | – | – | effect on activation of Q9VF/5D-specific CTLs by HIVLAI-infected cells ([1]; epoxomicin 1 µg/ml, 6 h at 37°C, citrate-phosphate buffer pH 3.3 wash, 8 h co-culture, IFNγ-ELISpot, representative of three CTL clones): abolished the capacity of HIVLAI-infected cells to activate Q9VF/5D-specific CTLs; effect on MHC-density and presentation of exogenous peptide ([1]; epoxomicin-treated T1-B7 cells, FACS, exogenous peptide 0.1 µg/ml): affected neither MHC-density
2 | MGKSSRREGFQPRSDTHVFSIIRRSHP | F10-Q11, major; also recorded: F19-S20, major, 30 min; also recorded: I22-R23, major; also recorded: R24-S25, major; also recorded: S14-D15; also recorded: S4-S5; also recorded: R6-R7; also recorded: R23-R24 | – | – | –
3 | MGKSSRREGFQPRSDTHVFSIIRRSHP [Q9VF/5D substrate] | – | 24 | 96 | –
4 | MGKSSRREGFQPRSNTHVFSIIRRSHP | F19-S20, 30 min; also recorded: S4-S5; also recorded: F10-Q11, 1 h; also recorded: I22-R23; also recorded: R24-S25; also recorded: N15-T16, major, 30 min | – | – | fragment found [4]: Q9VF (Q11-F19), minor
5 | MGKSSRREGFQPRSNTHVFSIIRRSHP [Q9VF/5N substrate] | – | 24 | 96 | –
